Reference: PMC8705783, “The Effect of Conjugation with Octaarginine, a Cell-Penetrating Peptide on Antifungal Activity of Imidazoacridinone Derivative” (International Journal of Molecular Sciences, 2021)
≈ marks a conversion by molar mass, not a printed value.

Assays:
[1] = test system: Candida parapsilosis ATCC 22019; test: microbe, parasite or virus in culture; details: Lodderomyces parapsilosis, ATCC22019, 24 h, pH 7
[2] = test system: human erythrocytes; format: cell-based; details: 30 min
Protocol: Red blood cell concentrates were kindly provided by the Regional Centre for Blood Donation and Blood Treatment in Gdansk. The haemolytic activity determination was carried out by the serial dilution method according to the procedure described earlier. Human erythrocytes were suspended in a solution of saline to obtain a cell density of suspension 2 × l0^7 per mL. Suitable amounts of solutions of compounds diluted in DMSO were added to the cell suspension in tubes, incubated at 37 °C for 30 min, and then centrifuged (1700× g, 5 min, 4 °C). The concentration of haemoglobin in the supernatant after centrifugation of the erythrocytes suspension was determined by measuring the absorbance at wavelength λ = 540 nm (A540 ^sample). Control experiments with the same amount of DMSO were also performed (A540 ^DMSO). The maximum level of haemolysis was obtained after incubation of the cell suspension in the presence of 0.1% Triton X-100 (positive control, A540 ^0.1%Triton X−100). […] The EH50 values for each compound were calculated with GraphPad Prism 8 software. The EH50 is the interpolated concentration of compound, for which the A540 value is exactly 50% of the A540 value measured for the positive control sample. EH (%) was calculated as follows:EH (%) = ((A540 ^sample − A540 ^DMSO)/(A540 ^0.1%Triton X−100 − A540 ^0.9%NaCl)) × 100

[3] = test system: Saccharomyces cerevisiae ATCC 9763; test: microbe, parasite or virus in culture; details: ATCC9763, 24 h, pH 7
[4] = test system: Candida albicans ATCC 10231; test: microbe, parasite or virus in culture; details: ATCC10231, 24 h, pH 7
[5] = test system: S. cerevisiae ATCC 9763; test: Minimal fungicidal concentration, spot assay; format: cell-based; details: Saccharomyces cerevisiae, ATCC9763; minimal fungicidal concentration that kills 99% of cells; read-out: MFC
Protocol: (§1) To establish the possible mode of action for Compound 1-R8, we have analysed the killing activity and determined minimal fungicidal concentrations (MFCs) (Table 4). Additionally, killing kinetics analysis against pathogenic C. albicans ATCC 10231 was performed (Figure 2).
(§2) Minimum fungicidal concentrations (MFCs) were determined as described previously by spot assay. The MFC was determined as the lowest concentration of the test compound in which no recovery of microorganisms was observed.

[6] = test system: Candida krusei ATCC 6258; test: microbe, parasite or virus in culture; details: Pichia kudriavzevii, ATCC6258, 24 h, pH 7
[7] = test system: C. parapsilosis DSM 5784; test: microbe, parasite or virus in culture; format: cell-based; details: Lodderomyces parapsilosis, DSM5784; minimal fungicidal concentration that kills 99% of cells; read-out: MFC
Protocol: as §1, §2

[8] = test system: C. glabrata DSM 11226; test: microbe, parasite or virus in culture; format: cell-based; details: Nakaseomyces glabratus, DSM11226; minimal fungicidal concentration that kills 99% of cells; read-out: MFC
Protocol: as §1, §2

[9] = test system: C. albicans ATCC 10231; test: microbe, parasite or virus in culture; format: cell-based; details: Candida albicans, ATCC10231; minimal fungicidal concentration that kills 99% of cells; read-out: MFC
Protocol: as §1, §2

[10] = test system: C. krusei DSM 6128; test: microbe, parasite or virus in culture; format: cell-based; details: Pichia kudriavzevii, DSM6128; minimal fungicidal concentration that kills 99% of cells; read-out: MFC
Protocol: as §1, §2

[11] = test system: Candida glabrata ATCC 90030; test: microbe, parasite or virus in culture; details: Nakaseomyces glabratus, ATCC90030, 24 h, pH 7
[12] = test system: C. albicans ATCC 10231; format: cell-based, Candida albicans
Protocol: Killing kinetics analysis was performed as described previously. […] After an appropriate time of incubation, 10 μL was withdrawn and spread on YPG agar plates. The number of colony-forming units (CFUs) was determined after overnight incubation of the plates at 37 °C. The killing kinetics analysis was performed with the GraphPad Prism 8 software (GraphPad Software Inc., San Diego, CA, USA).

## C[C@@H]1[C@H](O)[C@@H](C)/C=C/C=C/C=C/C=C/C=C/C=C/C=C/[C@H](O[C@@H]2O[C@H](C)[C@@H](O)[C@H](N)[C@@H]2O)C[C@@H]2O[C@](O)(C[C@@H](O)C[C@@H](O)[C@H](O)CC[C@@H](O)C[C@@H](O)CC(=O)O[C@H]1C)C[C@H](O)[C@H]2C(=O)O [Amphotericin B]
[1]
  MIC90: 1 µg/mL (≈ 1.08 µM)
[2]
  EH50: 3.46 ± 0.15 µg/mL
[3]
  MIC90: 0.5 µg/mL (≈ 0.541 µM)
[4]
  MIC90: 0.5 µg/mL (≈ 0.541 µM)
[5]
  MFC: 2 µg/mL (≈ 2.16 µM)
[6]
  MIC90: 1 µg/mL (≈ 1.08 µM)
[7]
  MFC: 2 µg/mL (≈ 2.16 µM)
[8]
  MFC: 2 µg/mL (≈ 2.16 µM)
[9]
  MFC: 2 µg/mL (≈ 2.16 µM)
[10]
  MFC: 2 µg/mL (≈ 2.16 µM)
[11]
  MIC90: 1 µg/mL (≈ 1.08 µM)
[12]
  mortality of the microbial population: about 60%
